The compounds below were run on P. falciparum 3D7 growth, pLDH absorbance (assay: P. falciparum 3D7 growth inhibition, dose response, strain 3D7 (AID 2305)).

SMILES | IC50
CC(=O)N/N=C/[C@H](CCc1ccccc1)NC(=O)[C@H](CC(C)C)NC(=O)c1ccc(F)cc1 | 690 nM
O=C(NCCCNc1ccc2ccccc2n1)c1cc2c(Cl)cc(Cl)cc2[nH]1 | 600 nM
CN1CCN(c2cc(-c3ccncc3)nc(-c3cccnc3)n2)CC1 | 810 nM
Cc1ccccc1C1CCN(C2CCC(NC(=O)c3ccc4c(c3)-c3nocc3C(C)O4)CC2)CC1 (centres undefined) | 1270 nM
O=C(Nc1ccccc1)N(Cc1ccccc1-c1cccc(CNCCc2ccccc2)c1)C1CCN(Cc2ccccc2)CC1 | 180 nM
c1ccc2c(c1)CN(CC1CC1)CC1(CCN(Cc3c[nH]c4cnccc34)CC1)O2 | 900 nM
Cc1cnc(CS(=O)c2nc3ccc(C(F)(F)F)cc3[nH]2)cc1OCc1ccccc1 (centres undefined) | 740 nM
Nc1n[nH]c(-c2ccccc2Nc2ccnc3cc(-c4nccs4)ccc23)n1 | 1120 nM
Cc1cc(Nc2ccc3ccccc3c2)n2ncnc2n1 | 170 nM
O=C(Nc1cccc(CN2CCCN(Cc3ncc[nH]3)CC2)c1)c1ccc2ccccc2c1 | 630 nM
Nc1c2nc(-c3c(F)cccc3Cl)[nH]c(=O)c2nc(=O)n1-c1ccccc1 | 680 nM
CN(Cc1cccc(F)c1)C1CCN(c2cc(NC(=O)c3ccc(F)cc3)ccn2)CC1 | 1160 nM
CC(CN1CCN(CC(c2ccc(F)cc2)N2CCN(C)CC2)CC1)C(=O)c1ccc(O)cc1 (centres undefined) | 670 nM
O=S(=O)(Nc1ccc2nccc(N3CCNCC3)c2c1)c1ccc(-c2ccccc2)cc1 | 980 nM
CC(C)CCNc1nc(NCCc2ccccc2)c2cc(O)ccc2n1 | 240 nM
O=C(Nc1ccc(NC2=NCCN2)cc1)c1ccc(C(=O)Nc2ccc(NC3=NCCN3)cc2)cc1 | 650 nM
COc1cc2nc(N3CCC(CNC(=O)c4ccc(OC(F)(F)F)cc4)CC3)nc(N)c2cc1OC | 220 nM
NC1CCCN(Cc2ccc(-c3cccc(-c4nc5ccc(F)cc5[nH]4)c3)cc2)C1 (centres undefined) | 640 nM
CN1CCC(Oc2ccc(Nc3nccc(NCC(O)c4ccccc4)n3)cc2Cl)CC1 (centres undefined) | 790 nM
Cc1[nH]n(-c2cccc(C(F)(F)F)c2)c(=O)c1-c1ccc(Cl)cc1 | 860 nM
O=S(=O)(NCCN1CCCC1)c1ccc(-c2ccc(CNCc3ccccc3)cc2)cc1 | 780 nM
COc1ccc2ncc(F)c([C@@H](O)CN3CCC(NCc4cc5c(cn4)OCS5)CC3)c2c1 | 140 nM
CN1CCN(c2cc(NC(=O)Nc3cccc(Cl)c3Cl)ccc2Cl)CC1 | 730 nM
CC(=O)N(C)C1CCN(Cc2ccc(-c3cccc(-c4nc5ccc(F)cc5[nH]4)c3)cc2)C1 (centres undefined) | 600 nM
Cc1cc(N2C(N)=NC(N)=NC2(C)C)ccc1Cl | 20 nM

SMILES | IC50
COc1ccc(Cl)cc1NC(=O)Nc1ccnc2ccccc12 | 680 nM
CNC(=S)NN=C(C)c1ccccn1 | 270 nM
CCN(CC)CCCNc1c2ccccc2nc2ccccc12 | 750 nM
NC(N)=NCCCCN(Cc1ccccc1)c1ccccc1 | 740 nM
O=C(Nc1ccccc1)NC1CCN(CCC2(c3ccc(Cl)c(Cl)c3)COCN(C(=O)c3ccccc3)C2)C1 (centres undefined) | 880 nM
CC1(C)N=C(NC(=O)c2ccc([N+](=O)[O-])cc2)N=C(N)N1OCc1ccc2ccccc2c1 | 10 nM
CS(=O)(=O)c1ccc(Nc2ncc(-c3ccc(S(C)(=O)=O)cc3)c(OCC(F)(F)F)n2)cc1 | 400 nM
O=C(/C=C/c1ccc(Cl)c(Cl)c1)NCCC1CCC(N2CCC(c3c[nH]c4ccccc34)CC2)CC1 (centres undefined) | 200 nM
Cc1nc(-c2ccc(-c3ccc(NC(=O)Nc4ccc(I)c(OCCN(C)C)c4)cc3)c(C)c2)no1 | 370 nM
Cc1cccc(NC(=S)NC2CCN(CCCCCNC(=O)/C=C/c3ccc(Cl)c(Cl)c3)CC2)c1 | 950 nM
Fc1ccc2nc(-c3ccc(-c4cccc(CN5CCC(CCN6CCCCC6)CC5)c4)cc3)[nH]c2c1 | 140 nM
CN1C(=C2SC(=Nc3ccc4ncccc4c3)N(Cc3ccccc3)C2=O)Sc2ccc(Cl)cc21 | 1060 nM
COc1cc(NC(=O)c2ccc3oc4ccccc4c3c2)ccc1OCCN1CCCCC1 | 920 nM
Cc1cc(C2CCN(CCCCNC(=O)c3ccc(NC(=O)c4ccc(Cl)cc4)cc3)CC2)c(C)cc1OCCN(C)C | 770 nM
CN(C)CCCNc1nccc(N(C)c2ccc(NC(=O)Nc3cc(C(F)(F)F)ccc3F)cc2)n1 | 980 nM
CO/C(=C\C=C\c1cc2cc(Cl)c(Cl)cc2[nH]1)C(=O)NCCCN1CCN(C2CCCCC2)CC1 | 1010 nM
COC(=O)c1ccc2nc(-c3cc(OC)c(O)c(C(=O)NC4CCN(Cc5ccccc5)CC4)c3)[nH]c2c1 | 1180 nM
COc1cc(CNCCCNc2cc(=O)c3ccccc3[nH]2)c2c(c1)C(C)CN2C(=O)OC(C)(C)C (centres undefined) | 730 nM
NC(N)=Nc1nc(-c2cccc(NCCCCCCCCON3C(N)=NC(N)=NC34CCCCC4)c2)cs1 | 230 nM
COc1ccc(NC(=O)[C@H](CC(C)C)Nc2cc(C)nc(NCCc3ccc(F)cc3)n2)cc1 | 920 nM
CCCCCCNC(=O)c1nn(CCN2CCC(N3CCCC3)CC2)cc1-c1ccc(Cl)c(Cl)c1 | 730 nM
FC(F)(F)c1ccc2nc(-c3ccc(-c4ccc(CNCCN5CCNCC5)cc4)cc3)[nH]c2c1 | 1120 nM
CC(C)N(Cc1cnc2nc(N)nc(N)c2n1)c1ccc(Cl)c(Cl)c1 | 160 nM
COC(=O)c1cc(NC(=O)Nc2ccc(Cn3ncc(N4CCCNCC4)c(Cl)c3=O)cc2)cc(C(=O)OC)c1 | 710 nM

Reference: PubChem BioAssay AID2305 (GlaxoSmithKline (GSK), 2010)
